The results in this text go back to patent publication US4457929A, “3-Quaternary ammonium methyl)-substituted cephalosporin derivatives” (Bristol-Myers Company, priority 1982, dated 1984).

In series [1] the test system is Pr. morganii (1 strain), Ent. cloacae (2 strains) and Ser. marcescens (2 strains). The series can be described thus: MIC by two-fold serial agar dilution, group (G-)-II. The format is cell-based. As to conditions: Mueller-Hinton agar; 5 strains; Example 1: two different batches; read-out: Geometric Mean of MIC (G-)-II. The text has this:
(§1) The preferred compounds of Formula I are those in which R^1 is hydrogen, R^2 is methyl, R^3 is methyl or ethyl, and R^4 is methyl, ethyl, 2-hydroxyethyl, 2-(dimethylamino)ethyl, allyl or pyridylmethyl. Particularly preferred compounds are those in which R^1 is hydrogen, R^2 and R^3 are methyl, and R^4 is methyl, 2-hydroxyethyl or allyl. The most preferred compound is that in which R^1 is hydrogen and R^2, R^3 and R^4 are methyl. In the primary evaluation of the preferred compounds of this invention, the Minimum Inhibitory Concentrations (MIC's) of the compounds were determined by the two-fold serial agar dilution method in Mueller-Hinton agar against 32 strains of test organisms in six groups.
(G-)II: Pr. morganii (1 strain), Ent. cloacae (2 strains) and Ser.

Series [2] relates to Ps. aeruginosa (6 strains). As to the kind of experiment: MIC by two-fold serial agar dilution, group (G-)-III. The format is cell-based. The note with it: Mueller-Hinton agar, Example 1: two different batches; for MIC: Pseudomonas aeruginosa, read-out: Geometric Mean of MIC (G-)-III.
Excerpt: as §1
(G-)III: Ps. aeruginosa (6 strains)

In series [3] the test system is Penicillinsensitive S. aureus (5 strains). The series can be described thus: MIC by two-fold serial agar dilution, group (G+)-Ia. The note with it: Mueller-Hinton agar, penicillin-sensitive S. aureus, Example 1: two different batches; for MIC: Staphylococcus aureus, read-out: Geometric Mean of MIC (G+)-Ia. The format is cell-based.
Excerpt: as §1
(G+)Ia: Penicillinsensitive S. aureus (5 strains)

The subject of series [4] is Cephalothinresistant E. coli (3 strains) and Kl. pneumoniae (3 strains). As to the kind of experiment: MIC by two-fold serial agar dilution, group (G-)-Ib. The format is cell-based. As to conditions: cephalothin-resistant, 6 strains, Example 1: two different batches; for MIC: Escherichia coli, read-out: Geometric Mean of MIC (G-)-Ib, Mueller-Hinton agar.
Excerpt: as §1
(G-)Ib: Cephalothinresistant E. coli (3 strains) and Kl. pneumoniae (3

The subject of series [5] is Penicillinresistant S. aureus (5 strains). The series can be described thus: MIC by two-fold serial agar dilution, group (G+)-Ib. As to conditions: Staphylococcus aureus, Mueller-Hinton agar, penicillin-resistant S. aureus, Example 1: two different batches, read-out: Geometric Mean of MIC (G+)-Ib. The series is classed as cell-based.
Excerpt: as §1
(G+)Ib: Penicillinresistant S. aureus (5 strains)

Series [6] concerns Cephalothinsensitive E. coli (2 strains), Kl. pneumoniae (1 strain) and Pr. mirabilis (2 strains). As to the kind of experiment: MIC by two-fold serial agar dilution, group (G-)-Ia. The format is cell-based. The note with it: Mueller-Hinton agar, cephalothin-sensitive, 5 strains, Example 1: two different batches; for MIC: read-out: Geometric Mean of MIC (G-)-Ia.
Excerpt: as §1
(G-)Ia: Cephalothinsensitive E. coli (2 strains), Kl. pneumoniae (1
strain) and Pr. mirabilis (2 strains)

Series [7] is described as follows: Mouse blood levels following a single intramuscular injection. The note with it: im, mice, 20 mg/kg. The series is classed as in vivo. On the procedure: The absorption of the most preferred Compound Ia (prepared in Example 1) was determined in mice following a single intramuscular injection of the test compound (dissolved in 0.1M phosphate buffer; pH 7) at a dosage of 20 mg/kg. Blood samples were collected from the orbital sinuses into heparinized capillary tubes and assayed in Mueller-Hinton medium using Morganella morganii A9695 as the test organism. The blood levels at various time intervals, the half-life values (t1/2) and the areas under the curve (AUC) are shown in Table 2.

Series [8] deals with S. pneumoniae (6). As to the kind of experiment: In vitro activity against fastidious bacteria in GC agar: S. pneumoniae. The note with it: Streptococcus pneumoniae, 6 strains, read-out: Geometric Mean of MIC. The format is cell-based. Here is the method: (§2) The in vitro activity of the most preferred Compound Ia against 31 strains of fastidious bacteria was determined in GC agar, and the results are shown in Table 3.

In series [9] the test system is S. pyogenes (6 strains). As to the kind of experiment: In vitro activity against fastidious bacteria in GC agar: S. pyogenes. The format is cell-based. The note with it: Streptococcus pyogenes, read-out: Geometric Mean of MIC. On the procedure: as §2
In series [10] the test system is N. meningitidis (5). As to the kind of experiment: In vitro activity against fastidious bacteria in GC agar: N. meningitidis. As to conditions: Neisseria meningitidis, 5 strains, read-out: Geometric Mean of MIC. The format is cell-based. On the procedure: as §2
In series [11] the test system is H. influenzae (3) (ampicillin resistant). As to the kind of experiment: In vitro activity against fastidious bacteria in GC agar: H. influenzae (ampicillin resistant). The series is classed as cell-based. The note with it: Haemophilus influenzae, 3 strains, read-out: Geometric Mean of MIC. Here is the method:
as §2

The subject of series [12] is H. influenzae (7) (ampicillin sensitive). As to the kind of experiment: In vitro activity against fastidious bacteria in GC agar: H. influenzae (ampicillin sensitive). The format is cell-based. As to conditions: Haemophilus influenzae, 7 strains, read-out: Geometric Mean of MIC. On the procedure:
as §2

The test system of series [13] is N. gonorrhoeae (4). As to the kind of experiment: In vitro activity against fastidious bacteria in GC agar: N. gonorrhoeae. The format is cell-based. The note with it: Neisseria gonorrhoeae, 4 strains, read-out: Geometric Mean of MIC. On the procedure: as §2

For the compound `C=CC[N+](C)(C)CC1=C(C(=O)[O-])N2C(=O)C(NC(=O)/C(=N\OC)c3csc(N)n3)C2SC1` (centres unmarked) [Example 3, 7-[(Z)-2-(2-Aminothiazol-4-yl)-2-methoxyiminoacetamido]-3-(N,N-dimethyl-N-allylammonium)methyl-3-cephem-4-carboxylate], the MIC in [1] amounted to 0.69 µg/mL; in series [2], 5.6 µg/mL; in [3], 1.4 µg/mL; in [4] it was 0.22 µg/mL; in series [5], 3.6 µg/mL; in series [6], 0.044 µg/mL.

In [7], `CO/N=C(\C(=O)NC1C(=O)N2C(C(=O)[O-])=C(C[N+](C)(C)C)CSC12)c1csc(N)n1` (centres unmarked) [Example 1, 7-[(Z)-2-(2-Aminothiazol-4-yl)-2-methoxyiminoacetamido]-3-(trimethylammonium)methyl-3-cephem-4-carboxylate] gave an AUC of 10000 ng·h/mL. In [7], this compound came in with a half-life of 24 min. Also, in [7] (10 minutes, read-out: Blood levels at minutes after administration: 10), the concentration at 10 min was 14000 ng/mL. Further, in series [7] (20 minutes, read-out: Blood levels at minutes after administration: 20), the concentration at 20 min was found to be 12000 ng/mL. Further, the concentration at 0.5 h in series [7] (30 minutes, read-out: Blood levels at minutes after administration: 30) came to 8800 ng/mL. In addition, the concentration at 40 min in series [7] (40 minutes, read-out: Blood levels at minutes after administration: 40) was 7500 ng/mL. Further, the concentration at 50 min in [7] (50 minutes, read-out: Blood levels at minutes after administration: 50) was 4700 ng/mL. Further, the concentration at 1 h in series [7] (60 minutes, read-out: Blood levels at minutes after administration: 60) amounted to 4400 ng/mL. For the same compound, in [7] (90 minutes, read-out: Blood levels at minutes after administration: 90), the concentration at 1.5 h was found to be 1500 ng/mL. Moreover, the concentration at 2 h in series [7] (120 minutes, read-out: Blood levels at minutes after administration: 120) was determined as 740 ng/mL. Further, the MIC in series [8] was found to be 0.013 µg/mL; in series [1] it was 0.69 µg/mL; in series [9] it was 0.013 µg/mL; in series [2], 3.2 µg/mL; in [10], 0.016 µg/mL; in series [11], 0.2 µg/mL. Moreover, the MIC is 1.1 µg/mL in [3]; 0.013 µg/mL in series [12]; 0.013 µg/mL in series [13]; 0.25 µg/mL in series [4]; 3.6 µg/mL in series [5]; 0.033 µg/mL in [6]. Besides, the “Geometric Mean of MIC (G-)-III” value in series [2] came out at 4.0 µg/mL. Besides, the “Geometric Mean of MIC (G+)-Ia” value in series [3] came to 1.6 µg/mL. Further, the “Geometric Mean of MIC (G-)-Ib” value in series [4] (Mueller-Hinton agar) came out at 0.20 µg/mL. Also, the “Geometric Mean of MIC (G-)-Ia” value in series [6] came out at 0.029 µg/mL.

Consider `CO/N=C(\C(=O)NC1C(=O)N2C(C(=O)[O-])=C(C[N+](C)(C)CCO)CSC12)c1csc(N)n1` (centres unmarked) [Example 2, 7-[(Z)-2-(2-Aminothiazol-4-yl)-2-methoxyiminoacetamido]-3-[N,N-dimethyl-N-(2-hydroxyethyl)ammonium]methyl-3-cephem-4-carboxylate], for which the MIC in series [1] amounted to 0.6 µg/mL; in series [2], 3.5 µg/mL; in [3], 1.6 µg/mL; in series [4], 0.18 µg/mL; in series [5], 4.7 µg/mL; in series [6], 0.038 µg/mL.

For the compound `CO/N=C(\C(=O)NC1C(=O)N2C(C(=O)[O-])=C(C[N+](C)(C)Cc3cccnc3)CSC12)c1csc(N)n1` (centres unmarked) [Example 4, 7-[(Z)-2-(2-Aminothiazol-4-yl)-2-methoxyiminoacetamido]-3-[N,N-dimethyl-N-(3-pyridylmethyl)ammonium]methyl-3-cephem-4-carboxylate], the MIC worked out at 0.69 µg/mL in series [1]; 7.1 µg/mL in [2]; 2.1 µg/mL in series [3]; 0.22 µg/mL in series [4]; 4.7 µg/mL in series [5]; 0.057 µg/mL in series [6].

`CCO/N=C(\C(=O)NC1C(=O)N2C(C(=O)[O-])=C(C[N+](C)(C)C)CSC12)c1csc(N)n1` (centres unmarked) [Example 8, 7-[(Z)-2-(2-Aminothiazol-4-yl)-2-ethoxyiminoacetamido]-3-(trimethylammonium)methyl-3-cephem-4-carboxylate]: the MIC in series [1] stood at 1.4 µg/mL; in series [2], 7.9 µg/mL; in [3], 2.1 µg/mL; in series [4], 0.5 µg/mL; in [5], 5.5 µg/mL; in [6], 0.087 µg/mL.
